Values of other authors as cited in US8809627B2, “Plant isoflavone and isoflavanone O-methyltransferase genes” (The Samuel Roberts Noble Foundation, Inc., priority 2006, dated 2014).

Molecular target: T1, MsI7OMT (Medicago sativa, UniProt O24529)
T1 sequence (O24529 1-352): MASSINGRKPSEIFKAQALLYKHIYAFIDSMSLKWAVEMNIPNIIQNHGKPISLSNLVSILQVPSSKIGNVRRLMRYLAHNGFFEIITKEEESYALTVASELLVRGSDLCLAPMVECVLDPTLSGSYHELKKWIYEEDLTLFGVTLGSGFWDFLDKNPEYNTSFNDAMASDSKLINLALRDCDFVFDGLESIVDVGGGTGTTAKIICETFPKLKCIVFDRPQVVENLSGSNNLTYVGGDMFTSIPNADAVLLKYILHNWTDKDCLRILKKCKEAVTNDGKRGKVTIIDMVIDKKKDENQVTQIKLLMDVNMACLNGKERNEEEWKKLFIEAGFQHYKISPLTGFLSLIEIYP
Settings: reported by He et al., 1998; cited from earlier work

Compound: O=c1c(-c2ccc(O)cc2)coc2cc(O)c(O)cc12 [6,7,4′-trihydroxyisoflavone]
- Activity of MsI7OMT relative to the activity with daidzein: 136 % of the activity with daidzein
